Assay results as given in ChEMBL document CHEMBL5154943, “Crystallography-Guided Optimizations of the Keap1-Nrf2 Inhibitors on the Solvent Exposed Region: From Symmetric to Asymmetric Naphthalenesulfonamides” (J Med Chem, 2022).
pKd: −log10 of the molar value. Converted amounts (≈) assume the structure as drawn. The source made the active and inactive calls. No cut-off for these calls is given here.

How the values were obtained:
[1] = Aqueous solubility of the compound in PBS at pH 2 after 24 hrs by HPLC-UV analysis; format: physicochemical
[2] = Aqueous solubility of the compound in PBS at pH 7 after 24 hrs by HPLC-UV analysis; format: physicochemical
[3] = Aqueous solubility of the compound in PBS at pH 7.4 after 24 hrs by HPLC-UV analysis; format: physicochemical
Keap1/Nrf2 = Keap1/Nrf2 (Homo sapiens, UniProt Q14145); assay: Inhibition of recombinant N-terminal His6-tagged human Keap1-Nrf2 (322 to 609 residues) (unknown origin) protein-protein interaction expressed in Escherichia coli (DE3) incubated for 60 mins by fluorescence anisotropy assay
Peritoneal macrophage [4] = assay: Cytotoxicity against mouse peritoneal macrophages assessed as reduction in cell viability measured after 24 hrs by Cell Titer-Blue assay; format: functional
Peritoneal macrophage [5] = assay: Antiinflammatory activity against LPS-induced mouse peritoneal macrophage assessed as suppression of ROS level at 10 uM pretreated with LPS followed by compound addition and measured after 6 hrs by DCFH-DA staining based fluorescence analysis; format: functional, cell-based
Peritoneal macrophage [6] = assay: Antiinflammatory activity against LPS-induced mouse peritoneal macrophage assessed as suppression of NO level at 10 uM pretreated with LPS followed by compound addition and measured after 24 hrs by Griess reagent based assay; format: functional, cell-based
Peritoneal macrophage [7] = assay: Antiinflammatory activity against LPS-induced mouse peritoneal macrophage assessed as inhibition of TNF alpha level at 10 uM after 4 hrs by ELISA method; format: functional, cell-based
Mus musculus [8] = assay: Antiinflammatory activity against ip dosed LPS-induced ALI C57BL/6J mouse model assessed as reduction in TNF-alpha level in BALF administered 0.5 hr prior to LPS stimulation by ELISA method; format: functional, organism-based; details: dose 5-20 mg/kg, DDE = dose-dependent effect
Mus musculus [9] = assay: Antiinflammatory activity against ip dosed LPS-induced ALI C57BL/6J mouse model assessed as reduction in […] level in BALF administered 0.5 hr prior to LPS stimulation by ELISA method; format: functional, organism-based; details: dose 5-20 mg/kg, DDE = dose-dependent effect
Mus musculus [10] = assay: Antiinflammatory activity against ip dosed LPS-induced ALI C57BL/6J mouse model assessed as reduction in IL-6 level in BALF administered 0.5 hr prior to LPS stimulation by ELISA method; format: functional, organism-based; details: dose 5-20 mg/kg, DDE = dose-dependent effect
Mus musculus [11] = assay: Antiinflammatory activity against ip dosed LPS-induced ALI C57BL/6J mouse model assessed as reduction in TNF-alpha mRNA expression in BALF administered 0.5 hr prior to LPS stimulation by RT-qPCR method; format: functional, organism-based; details: dose 5-20 mg/kg, DDE = dose-dependent effect
Mus musculus [12] = assay: Antiinflammatory activity against ip dosed LPS-induced ALI C57BL/6J mouse model assessed as reduction in IL-1beta mRNA expression in BALF administered 0.5 hr prior to LPS stimulation by RT-qPCR method; format: functional, organism-based; details: dose 5-20 mg/kg, DDE = dose-dependent effect
Mus musculus [13] = assay: Antiinflammatory activity against ip dosed LPS-induced ALI C57BL/6J mouse model assessed as reduction in IL-6 mRNA expression in BALF administered 0.5 hr prior to LPS stimulation by RT-qPCR method; format: functional, organism-based; details: dose 5-20 mg/kg, DDE = dose-dependent effect
Mus musculus [14] = assay: In vivo inhibition of Keap1-Nrf2 interaction in LPS-induced acute lung injury C57BL/6J mouse model assessed as increase in Nrf2 nuclear translocation in lungs by measuring decrease in cytosolic Nrf2 level treated intraperitoneally at 0.5 hrs before LPS stimulation by Western blot analysis; format: functional, organism-based; details: dose 5-20 mg/kg, route ip, DDE = dose-dependent effect
Mus musculus [15] = assay: In vivo inhibition of Keap1-Nrf2 interaction in LPS-induced acute lung injury C57BL/6J mouse model assessed as increase in Nrf2 nuclear translocation in lungs by measuring increase in nuclear Nrf2 level treated intraperitoneally at 0.5 hrs before LPS stimulation by Western blot analysis; format: functional, organism-based; details: dose 5-20 mg/kg, route ip, DDE = dose-dependent effect

Chain of Keap1/Nrf2 (Q16236 whole entry, the tested form may be a part): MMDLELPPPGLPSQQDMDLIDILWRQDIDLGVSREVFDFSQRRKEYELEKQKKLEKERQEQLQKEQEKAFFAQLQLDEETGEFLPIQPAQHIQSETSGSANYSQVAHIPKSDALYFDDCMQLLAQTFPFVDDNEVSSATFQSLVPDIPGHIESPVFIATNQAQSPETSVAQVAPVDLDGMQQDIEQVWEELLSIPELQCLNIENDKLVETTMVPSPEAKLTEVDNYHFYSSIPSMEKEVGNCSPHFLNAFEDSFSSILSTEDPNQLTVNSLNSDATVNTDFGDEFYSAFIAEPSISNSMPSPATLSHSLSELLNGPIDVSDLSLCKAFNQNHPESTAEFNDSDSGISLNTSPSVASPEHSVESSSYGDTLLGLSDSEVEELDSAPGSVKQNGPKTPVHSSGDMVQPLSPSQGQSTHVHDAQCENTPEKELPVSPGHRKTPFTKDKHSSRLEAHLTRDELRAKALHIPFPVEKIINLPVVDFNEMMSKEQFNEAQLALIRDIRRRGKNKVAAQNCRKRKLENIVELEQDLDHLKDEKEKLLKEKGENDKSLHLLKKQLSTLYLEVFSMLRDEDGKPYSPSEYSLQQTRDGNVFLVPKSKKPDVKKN
Chain of Keap1/Nrf2 (Q14145 whole entry, the tested form may be a part): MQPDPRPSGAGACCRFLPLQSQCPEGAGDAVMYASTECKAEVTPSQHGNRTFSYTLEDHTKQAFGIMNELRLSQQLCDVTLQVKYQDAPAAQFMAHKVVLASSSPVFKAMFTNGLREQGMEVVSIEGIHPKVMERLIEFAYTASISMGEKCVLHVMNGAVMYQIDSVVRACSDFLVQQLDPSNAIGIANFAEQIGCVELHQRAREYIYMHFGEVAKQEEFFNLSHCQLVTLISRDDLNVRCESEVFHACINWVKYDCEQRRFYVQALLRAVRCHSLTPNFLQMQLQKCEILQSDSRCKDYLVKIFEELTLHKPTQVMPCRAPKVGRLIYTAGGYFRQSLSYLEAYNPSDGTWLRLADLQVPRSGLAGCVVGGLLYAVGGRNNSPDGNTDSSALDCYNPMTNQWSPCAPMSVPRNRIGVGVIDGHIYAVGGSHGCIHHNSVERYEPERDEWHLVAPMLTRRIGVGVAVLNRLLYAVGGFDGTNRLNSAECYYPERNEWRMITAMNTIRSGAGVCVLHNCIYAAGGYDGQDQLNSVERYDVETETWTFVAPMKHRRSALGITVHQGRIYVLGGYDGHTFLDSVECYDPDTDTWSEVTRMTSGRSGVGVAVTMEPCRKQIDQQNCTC

SMILES | solubility at 24 h [1] | solubility at 24 h [2] | solubility at 24 h [3] | pKd (Keap1/Nrf2) | CC50 (Peritoneal macrophage [4]) | also measured
CCN1CCN(CCC(=O)Nc2ccc(S(=O)(=O)N(CC(N)=O)c3ccc(N(CC(N)=O)S(=O)(=O)c4ccc(OC)cc4)c4ccccc34)cc2)CC1.Cl | 1570 µg/mL | 151 µg/mL | 47.7 µg/mL |  |  | 
Br.Br.COc1ccc(S(=O)(=O)N(CC(N)=O)c2ccc(N(CC(N)=O)S(=O)(=O)c3ccc(N)cc3)c3ccccc23)cc1 | 532 µg/mL | 58.6 µg/mL | 40.7 µg/mL |  |  | 
COc1ccc(S(=O)(=O)N(CC(N)=O)c2ccc(N(CC(N)=O)S(=O)(=O)c3ccc(NC(=O)CCN4CCOCC4)cc3)c3ccccc23)cc1 |  |  |  | 5.99 | > 100 µM | Activity (Peritoneal macrophage [5]): Active; Activity (Peritoneal macrophage [6]): Active; Activity (Peritoneal macrophage [7]): Active
Br.CCN1CCN(CCC(=O)Nc2ccc(S(=O)(=O)N(CC(N)=O)c3ccc(N(CC(N)=O)S(=O)(=O)c4ccc(OC)cc4)c4ccccc34)cc2)CC1 | 1460 µg/mL | 170 µg/mL | 130 µg/mL |  |  | 
COc1ccc(S(=O)(=O)N(CC(N)=O)c2ccc(N(CC(N)=O)S(=O)(=O)c3ccc(NC(=O)CN4CCCCC4)cc3)c3ccccc23)cc1 |  |  |  | 5.18 | > 100 µM | 
COc1ccc(S(=O)(=O)N(CC(N)=O)c2ccc(N(CC(N)=O)S(=O)(=O)c3ccc(NC(=O)CN4CCN(C(C)C)CC4)cc3)c3ccccc23)cc1 |  |  |  | 5.84 | > 100 µM | 
COc1ccc(S(=O)(=O)N(CC(N)=O)c2ccc(N(CC(N)=O)S(=O)(=O)c3ccc(NC(=O)CCN4CCC(C)CC4)cc3)c3ccccc23)cc1 |  |  |  | 5.68 | > 100 µM | 
COc1ccc(S(=O)(=O)N(CC(N)=O)c2ccc(N(CC(N)=O)S(=O)(=O)c3ccc(NC(=O)CCCN4CCOCC4)cc3)c3ccccc23)cc1 |  |  |  | 5.97 | > 100 µM | 
COc1ccc(S(=O)(=O)N(CC(N)=O)c2ccc(N(CC(N)=O)S(=O)(=O)c3ccc(NC(=O)CN4CCSCC4)cc3)c3ccccc23)cc1 |  |  |  | 5.05 | > 100 µM | 
CCN1CCN(CCCC(=O)Nc2ccc(S(=O)(=O)N(CC(N)=O)c3ccc(N(CC(N)=O)S(=O)(=O)c4ccc(OC)cc4)c4ccccc34)cc2)CC1 |  |  |  | 6.24 | > 100 µM | 
CCN1CCN(CCC(=O)Nc2ccc(S(=O)(=O)N(CC(N)=O)c3ccc(N(CC(N)=O)S(=O)(=O)c4ccc(OC)cc4)c4ccccc34)cc2)CC1.O=C(O)C(F)(F)F | 1260 µg/mL | 135 µg/mL | 105 µg/mL |  |  | 
COc1ccc(S(=O)(=O)N(CC(N)=O)c2ccc(N(CC(N)=O)S(=O)(=O)c3ccc(NC(=O)CCN4CCCCC4)cc3)c3ccccc23)cc1 |  |  |  | 5.85 | > 100 µM | 
COc1ccc(S(=O)(=O)N(CC(N)=O)c2ccc(N(CC(N)=O)S(=O)(=O)c3ccc(NC(=O)CN4CCOCC4)cc3)c3ccccc23)cc1 |  |  |  | 5.87 | > 100 µM | 
CCN1CCN(CCC(=O)Nc2ccc(S(=O)(=O)N(CC(N)=O)c3ccc(N(CC(N)=O)S(=O)(=O)c4ccc(OC)cc4)c4ccccc34)cc2)CC1.O=C(O)CC(O)(CC(=O)O)C(=O)O | 1030 µg/mL | 129 µg/mL | 72.5 µg/mL |  |  | 
CCC(=O)Nc1ccc(S(=O)(=O)N(CC(N)=O)c2ccc(N(CC(N)=O)S(=O)(=O)c3ccc(OC)cc3)c3ccccc23)cc1 |  |  |  | 5.55 | > 50 µM | 
COc1ccc(S(=O)(=O)N(CC(N)=O)c2ccc(N(CC(N)=O)S(=O)(=O)c3ccc(NC(C)=O)cc3)c3ccccc23)cc1 |  |  |  | 5.75 | > 50 µM | Activity (Peritoneal macrophage [5]): Active; Activity (Peritoneal macrophage [6]): Active; Activity (Peritoneal macrophage [7]): Active
CCN1CCN(CCC(=O)Nc2ccc(S(=O)(=O)N(CC(N)=O)c3ccc(N(CC(N)=O)S(=O)(=O)c4ccc(OC)cc4)c4ccccc34)cc2)CC1.O=C(O)CCC(=O)O | 1080 µg/mL | 130 µg/mL | 76.9 µg/mL |  |  | 
CC(=O)O.CCN1CCN(CCC(=O)Nc2ccc(S(=O)(=O)N(CC(N)=O)c3ccc(N(CC(N)=O)S(=O)(=O)c4ccc(OC)cc4)c4ccccc34)cc2)CC1 | 926 µg/mL | 120 µg/mL | 77.9 µg/mL |  |  | 
CCN1CCN(CC(=O)Nc2ccc(S(=O)(=O)N(CC(N)=O)c3ccc(N(CC(N)=O)S(=O)(=O)c4ccc(OC)cc4)c4ccccc34)cc2)CC1 |  |  |  | 6.32 | > 100 µM | 
COc1ccc(S(=O)(=O)N(CC(N)=O)c2ccc(N(CC(N)=O)S(=O)(=O)c3ccc(NC(=O)CCN4CCN(C(C)C)CC4)cc3)c3ccccc23)cc1 |  |  |  | 6.15 | > 100 µM | 
CCCCC(=O)Nc1ccc(S(=O)(=O)N(CC(N)=O)c2ccc(N(CC(N)=O)S(=O)(=O)c3ccc(OC)cc3)c3ccccc23)cc1 |  |  |  | < 5.00 | > 100 µM | 
CCN1CCN(CCC(=O)Nc2ccc(S(=O)(=O)N(CC(N)=O)c3ccc(N(CC(N)=O)S(=O)(=O)c4ccc(OC)cc4)c4ccccc34)cc2)CC1.O=C(O)/C=C\C(=O)O | 1050 µg/mL | 122 µg/mL | 80.5 µg/mL |  |  | 
COc1ccc(S(=O)(=O)N(CC(N)=O)c2ccc(N(CC(N)=O)S(=O)(=O)c3ccc(NC(=O)CN4CCC(C)CC4)cc3)c3ccccc23)cc1 |  |  |  | 5.21 | > 50 µM | 
COc1ccc(S(=O)(=O)N(CC(N)=O)c2ccc(N(CC(N)=O)S(=O)(=O)c3ccc(N)cc3)c3ccccc23)cc1 | 47.5 µg/mL (≈ 79.5 µM) | 55.4 µg/mL (≈ 92.7 µM) | 33.6 µg/mL (≈ 56.2 µM) |  |  | 
CCN1CCN(CCC(=O)Nc2ccc(S(=O)(=O)N(CC(N)=O)c3ccc(N(CC(N)=O)S(=O)(=O)c4ccc(OC)cc4)c4ccccc34)cc2)CC1 |  |  |  |  |  | Activity (Peritoneal macrophage [5]): Active; Activity (Mus musculus [8]): Dde; Activity (Mus musculus [9]): Dde; Activity (Mus musculus [10]): Dde; Activity (Mus musculus [11]): Dde; Activity (Mus musculus [12]): Dde; Activity (Mus musculus [13]): Dde; Activity (Mus musculus [14]): Dde; Activity (Peritoneal macrophage [6]): Active; Activity (Peritoneal macrophage [7]): Active; Activity (Mus musculus [15]): Dde
CCCC(=O)Nc1ccc(S(=O)(=O)N(CC(N)=O)c2ccc(N(CC(N)=O)S(=O)(=O)c3ccc(OC)cc3)c3ccccc23)cc1 |  |  |  | < 5.00 | > 100 µM | 
COc1ccc(S(=O)(=O)N(CC(N)=O)c2ccc(N(CC(N)=O)S(=O)(=O)c3ccc(NC(=O)CCCN4CCSCC4)cc3)c3ccccc23)cc1 |  |  |  | 5.53 | > 100 µM | 
COc1ccc(S(=O)(=O)N(CC(N)=O)c2ccc(N(CC(N)=O)S(=O)(=O)c3ccc(NC(=O)CCCN4CCN(C(C)C)CC4)cc3)c3ccccc23)cc1 |  |  |  | 5.83 | > 100 µM | 
COc1ccc(S(=O)(=O)N(CC(N)=O)c2ccc(N(CC(N)=O)S(=O)(=O)c3ccc(NC(=O)CCN4CCSCC4)cc3)c3ccccc23)cc1 |  |  |  | 5.54 | > 50 µM | 
